Source: patent US9980931B2, “Use of glycyl glutamine against depression” (priority 2013, dated 2018)
Like-named read-outs stand apart in the source and are kept apart here. Peptide text beside a SMILES is read from it.

Columns and labels:
[1] = test system: serotonin output at the nucleus accumbency section of the brain; assay: Brain micro-dialysis, serotonin output after intracerebroventricular injection; format: in vivo, rats; conditions: 100 nmol single intracerebroventricular dose; 2 hours monitoring; p<0.001; FIGS. 4 and 5
Experimental: The source of the antidepressant effects of Gly-Gln, which is mentioned in the figure descriptions above, have been analyzed and shown in FIGS. 4 and 5. In FIGS. 4 and 5; the effect of Gly-Gin on the serotonin output at the nucleus accumbency section of the brain upon intracerebroventricular Gly-Gln injection can be seen. […] An increase in serotonin outputs can be observed in all time intervals throughout 2 hours of monitoring period following the Gly-Gln injection; however, no serotonin output could be observed from the rodents in the control group who had been administered saline injections by the same way. Serotonin, which is structurally a monoamine neurotransmitter, is a hormone, which makes people feel happy, energetic and lively. When, the subject matter hormone serotonin is deficient in people, they feel depressive, tired and boring. […] Furthermore, the word “Saline” indicated in FIGS. 4 and 5 means salty water. It is used for comparing with the tested medication by administering on the control group.

[2] = test system: GABA levels in the brain; assay: GABA levels in the brain after administration; format: in vivo; conditions: Gly-Gln administration; data from our laboratory
Description: This innovation is related with the use of glycyl-glutamine in the treatment and/or prophylaxis of depression disorder and/or anxiety, which meets all above-mentioned requirements, eliminates all disadvantages and provides some advantages. The purpose of the current invention is to use Glycyl-Glutamine (Gly-Gln) in the treatment and/or prophylaxis of depression and/or anxiety via its effects in the brain other than its metabolic products' (glycine and glutamine) separate effects. […] Glutamine exerts antidepressant effects by increasing gamma-aminobutyric acid (GABA) in the brain however Gly-Gln generates antidepressant effects by increasing serotonin levels in the brain. […] Although glutamine administration increases GABA levels in the brain.

[3] = administered peripherally; cited from earlier work
[4] = test system: brainstem of rodents; conditions: applied on the brainstem of rodents iontophoretically (Parish et al., 1983); cited from earlier work
[5] = test system: thermogenesis caused by alpha-MSH; conditions: Resch and Millington, 1993; cited from earlier work
[6] = test system: cardiorespiratory depression; conditions: Unal et al., 1997; cited from earlier work
[7] = test system: use of alcohol; conditions: administered centrally (Resch et al., 2005; Simpson et al., 1998); cited from earlier work
[8] = test system: conditioned place preference caused by morphine; conditions: Cavun et al., 2005; cited from earlier work
[9] = test system: conditioned place preference (nicotine); conditions: Goktalay et al., 2006; cited from earlier work
[10] = test system: myocardial damage; conditions: Zhang et al., 2013; cited from earlier work
[11] = test system: GABA levels in the brain; conditions: glutamine administration; cited from earlier work

NCC(=O)N[C@@H](CCC(N)=O)C(=O)O [Gly-Gln, glycyl-glutamine] (H-Gly-Gln-OH)
serotonin output at the nucleus accumbency section of the brain [1]: extremely increased
GABA levels in the brain [2]: does not alter
crossing of the blood-brain barrier [3]: could not across
effect on cell ignition [4]: inhibiting effect
thermogenesis caused by alpha-MSH [5]: antagonized
cardiorespiratory depression caused by beta-endorphin [6]: eliminated
cardiorespiratory depression caused by beta-endorphin and morphine [6]: eliminated
use of alcohol [7]: decreased
addition and tolerance developments (morphine) [8]: inhibited
conditioned place preference caused by morphine [8]: prevented
deprivation symptoms (morphine) [8]: decreased
conditioned place preference and deprivation syndrome (nicotine) [9]: prevented
effects on myocardial damage after severe burn injury [10]: beneficial effects

NC(=O)CC[C@@H]1NC(=O)CNC1=O [cyclo Gly-Gln]
crossing of the blood-brain barrier [3]: could be across
cardiorespiratory depression caused by beta-endorphin and morphine [6]: eliminated

NC(=O)CC[C@H](N)C(=O)O [glutamine]
GABA levels in the brain [11]: increases

beta-endorphin (YGGFMTSEKSQTPLVTLFKNAIIKNAYKKGE; Beta-endorphin; UniProt P01189 237-267, looked up) [endogenous peptide from which Gly-Gln is produced, reference compound]
use of alcohol [7]: increased
